Consider six compounds from US12599662B2, “Methods and compositions for treating cancers” (INSERM (INSTITUT NATIONAL DE LA SANTÉ ET DE LA RECHERCHE …, priority 2018, dated 2026).

Test [1] relates to 4T1 cells. In words: Vaccination study with irradiated hESC + adjuvants + VPA on 4T1 mice model. The conditions noted are these: for Percentage of tumor reduction (% of reduction): day 26, compared to control group receiving only PBS, irradiated hESC vaccine + named adjuvant, VPA 4 mg/ml in drinking water, 4T1 in mammary fat pad. The test is classed as in vivo. On the procedure: FIG. 1: Vaccination study with hESC combined with Valproic acid (VPA), Poly(A:U), ODN 2395 or Quil-A® adjuvant on 4T1 mice model. Vaccination study with hESC combined with Valproic acid (VPA), Poly(A:U), ODN 2395 or Quil-A® adjuvant on 4T1 mice model. Blab/c mice two boosts of vaccine containing 3 different adjuvants the day of tumor challenge. Tumor growth was assessed until 26 days to follow the tumor size using calipers permitting to measure both the longitudinal (a, mm) and transverse (b, mm) diameters. Tumor volume was calculated and plotted using calculation formula 1/6Π(a+b/2)3 mm3.
The experiment was carried out as followed: Five mice per group received two boosts of vaccine 7 and 14 days with 2×10^6 irradiated hESCs cells that were mixed with 3 different adjuvants: 500 μg of TLR3, 50 μg of TLR9 agonist or 50 μg/ml of Quil-A® Saponin vaccine adjuvant. After 14 days 5×10^4 4T1 cells were injected into the mammary fat pad of the mice and Valproic acid added in the drinking water at the dose of 4 mg/ml. Five mice receiving no treatment were used as control.
Adjuvants used in the vaccine product: Three different adjuvants were tested: • 1/ A TLR3-based adjuvant: Poly(A:U) (ref #tlrl-pau, InvivoGen) Polyadenylic-polyuridylic acid (poly(A:U)) is a synthetic double stranded RNA molecule that specifically signals through TLR3. Poly(A:U) is known to induce the activation of dendritic cells and T lymphocytes, to promote antigen-specific Th1-immune responses and to boost antibody production. […]

Test [2] relates to 4T1 cells. In words: Surface marker expression on 4T1 cells by flow cytometry. The test is classed as cell-based. As to the method: (§1) FIG. 2: Valproic acid treatment increases MHC I expression in breast tumor cells. Variation in MHC I expression during VPA treatment at 2 mM on 4T1 adherent cells and on 4T1-derived mammospheres.
(§2) 4T1 cells are a triple negative breast cancer cell line that was incubated with increased doses (0.2 and 2 mM) of valproic acid (VPA). After 4 days of treatment, the MHC I surface marker was quantified by flow cytometry analysis.

The subject of test [3] is mammosphere-derived 4T1 cells. The test can be described thus: MHC I expression on 4T1-derived mammospheres by flow cytometry. In kind it is cell-based. The conditions noted are these: 2 mM VPA. As to the method:
as §1, §2
(In flow cytometry, cells or beads pass a laser one at a time.)

Test [4] deals with LLC1. The test can be described thus: MTT cell proliferation assay on LLC1. The test is classed as cell-based. Conditions: Mus musculus. On the procedure: (§3) Non-small cell lung cancer (NSCLC) cell line (lewis lung carcinoma, LLC) expressing a particularly aggressive metastatic phenotype was used.
The half maximal inhibitory concentration (IC50) was first determined for each HDACi using an MTT cell proliferation assay. LLC1 was treated with an increasing dose of HDCAi and proliferation was estimated measuring the absorbance after the incorporation by the cell of MMT (3-(4,5-dimethylthiazol-2-yl)-2,5-diphenyl tetrazolium bromide) substrate.
(In general: Tetrazolium dyes change colour on reduction, which living cells bring about.)

In test [5] the test system is LLC1. In words: MHC class I and II expression on LLC1 by flow cytometry. Conditions: for MHC class 2 expression: LLC1, dose corresponding to IC50; for increase of expression of MHC1 on the cell membrane: LLC1, dose corresponding to IC50, 48 hours, compared to untreated cells. The test is classed as cell-based.
Text: FIG. 3: HDACi up-regulates MHC1 in Lung cancer cell lines. […] MHCI and MHCII expression was quantified by flow cytometry analysis measuring the Relative Fluorescence Intensity (RFI).
as §3

Test [6] concerns 4T1 cells. The test can be described thus: Transcriptome analysis of VPA-treated 4T1 cells. The test is classed as cell-based. Conditions: 0.5 mM VPA for 10 days versus non-VPA treated cells. On the procedure: To determine the effect of VPA on 4T1 cells, a transcriptome analysis on cells treated with 0.5 mM of VPA for 10 days was performed and compared with that of non-VPA treated cells. These analyses allowed for the identification of the set of genes implicated in TNF-α signaling and in the response of IFN-α and IFN-γ. In addition, the use of the SAM algorithm allowed for the discrimination of 44 immune-related genes between the VPA-treated samples and their control counterparts, which were validated by principal component analysis (p-value=3.3×10^−4). […] These three molecules are known to contribute to the clonal expansion, survival, and development of T cells and regulate CD28 co-stimulation to promote Th1 cell responses. Consequently, this HDACi improves the immune response against the cancer cells.

The target of a further test is HDACs. The conditions noted are these: cited from earlier work.

pIC50, pKi: −log10 of the molar value.

With “Polyadenylic-polyuridylic acid [Poly(A:U)]”, in the test with 4T1 cells [1], the “Percentage of tumor reduction (% of reduction)” value was 54%. For the same compound, the “reduction of breast tumor volume” value in the test with 4T1 cells [1] (hESC vaccine + adjuvant, versus TLR9 agonist or Quil-A, p<0.001) is “highest reduction of breast tumor volume”.
As usually defined, the pIC50 is the negative decadic logarithm of the IC50, by convention in mol/L. On to `CCCC(CCC)C(=O)O` [VPA, acid-2-propylpentanoic], for which the “Percentage of tumor reduction (% of reduction)” value in the test on 4T1 cells [1] turned out to be 24%. The “MHC I levels” value in the test on 4T1 cells [2] (0.2 and 2 mM, 4 days of treatment) is recorded as “increasing MHC I levels in a dose-dependent manner”. Besides, in the test with 4T1 cells [2] (4T1 cells, 2 mM VPA), the “increase in PDL1 expression” value was 2.1 fold and the “increase of MHC I expression (Relative Fluorescence Intensity)” value was determined as 2.1 fold. Further, the PDL2 expression result in the test with 4T1 cells [2] (4T1 cells, after VPA treatment) was “only weakly upregulated”. Besides, in test [3], the “increase of MHC I expression (Relative Fluorescence Intensity)” value stood at 2.7 fold. Further, the pIC50 with LLC1 [4] was approximately 2.70. The “MHC1 overexpression versus non-treated LLC1 cells” value in the test on LLC1 [5] (LLC1, FIG. 3A) was 10 folds. In addition, in the test on LLC1 [5], the “MHC class 2 expression” value is listed as “not modulated” and the “increase of expression of MHC1 on the cell membrane” value (“increase of expression of MHC1” below) was determined as 2 fold. In addition, in the test on 4T1 cells [6], the “fold change of CD74, CCL2 and TNFRSF9 expression” value was “greater than 2”.
The term pKi denotes the Ki on a negative log10 scale, so that one unit is a factor of ten. Regarding 2-pyrrolidinone-n-butyric acid [PBA], at HDACs (major carboxylic acid metabolite of levetiracetam in humans, read-out: Ki for HDAC inhibition), the pKi is 2.65.
Turning to `O=C(CCCCCCC(=O)Nc1ccccc1)NO` [Vorinostat, N-Hydroxy-N′-phenyloctanediamide], in the test with LLC1 [5], the “MHC class 2 expression” value was “not modulated” and the “increase of expression of MHC1” value amounted to 2 fold.
Turning to `Nc1ccccc1NC(=O)c1ccc(CNC(=O)OCc2cccnc2)cc1` [Entinostat], the negative logarithm of the IC50 (pIC50) in the test with LLC1 [4] is 5.40 to 5.70. Further, in the test with LLC1 [5], the “MHC class 2 expression” value is “not modulated” and the “increase of expression of MHC1” value was found to be 2 fold.
With `CC[C@@H](C(N)=O)N1CCCC1=O` [Levetiracetam], in the test with LLC1 [4], the pIC50 was 5.40 to 5.70. Further, in the test on LLC1 [5], the “MHC class 2 expression” value is on record as “not modulated” and the “increase of expression of MHC1” value was 2 fold. Moreover, the “direct effect on HDACs” value in the test on HDACs is “no direct effect on HDACs”.
